Measurements published in US8871681B2, “Herbicidal compositions comprising 4-amino-3-chloro-5-fluoro-6-(4-chloro-2-fluoro-3-methoxyphenyl) pyridine-2-carboxylic acid or a derivative thereof and certain sulfonylureas” (Dow AgroSciences LLC, priority 2012, dated 2014).

System: LEFCH (Leptochloa chinensis, Chinese sprangletop)
Test: In-water applied weed control, transplanted paddy rice, greenhouse (Example II)
Type: in vivo, Leptochloa chinensis (L.) Nees
Outline: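 Transplanted rice and weeds at first to fourth true leaf stage in flooded mud pots (2.5–3 cm water), greenhouse ~29/26 °C day/night. Herbicides alone or mixed, in 1.25% crop oil concentrate (acetone for technical material), injected into the flood; visual 0–100% injury after ~3 weeks, expected mixture effects by Colby.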

COC(=O)c1ccccc1CS(=O)(=O)NC(=O)Nc1nc(OC)cc(OC)n1 [Bensulfuron-methyl, methyl 2-[[[[[(4,6-dimethoxy-2-pyrimidinyl)amino]carbonyl]amino]sulfonyl]methyl]benzoate, reference compound]
Visual Weed Control (%) - 19 DAA LEFCH Obs (Table 31, 70 gai/ha alone): 23%

COc1c(Cl)ccc(-c2nc(C(=O)O)c(Cl)c(N)c2F)c1F [Compound A Acid, 4-amino-3-chloro-5-fluoro-6-(4-chloro-2-fluoro-3-methoxy-phenyl)pyridine-2-carboxylic acid]
Visual Weed Control (%) - 19 DAA LEFCH Obs (Table 31, 42 gae/ha alone): 10% | Visual Weed Control (%) - 22 DAA LEFCH Obs (Table 34, 10.6 gae/ha alone): 20% | Visual Weed Control (%) - 22 DAA LEFCH Obs (Table 34, 21.2 gae/ha alone): 40% | Visual Weed Control (%) - 22 DAA LEFCH Obs (Table 34, 42.4 gae/ha alone): 60% | Visual Weed Control (%) - 21 DAA LEFCH Obs (Table 36, 17.5 gae/ha alone): 20% | Visual Weed Control (%) - 20 DAA LEFCH Obs (Table 43, 10.6 gae/ha alone): 30% | Visual Weed Control (%) - 20 DAA LEFCH Obs (Table 43, 21.2 gae/ha alone): 20% | Visual Weed Control (%) - 20 DAA LEFCH Obs (Table 43, 42.4 gae/ha alone): 75% | Visual Weed Control (%) - 21 DAA LEFCH Obs (Table 47, 17.5 gae/ha alone): 20% | Visual Weed Control (%) - 20 DAA LEFCH Obs (Table 49, 10.6 gae/ha alone): 30% | Visual Weed Control (%) - 20 DAA LEFCH Obs (Table 49, 21.2 gae/ha alone): 20% | Visual Weed Control (%) - 20 DAA LEFCH Obs (Table 49, 42.4 gae/ha alone): 75%

COc1c(Cl)ccc(-c2nc(C(=O)OCc3ccccc3)c(Cl)c(N)c2F)c1F [Compound A Benzyl Ester]
Visual Weed Control (%) - 22 DAA LEFCH Obs (Table 35, 4.38 gae/ha alone): 20% | Visual Weed Control (%) - 20 DAA LEFCH Obs (Table 50, 4.38 gae/ha alone): 20%

COCC(=O)OC(c1ncccc1S(=O)(=O)NC(=O)Nc1nc(OC)cc(OC)n1)C(C)F (centres unmarked) [Flucetosulfuron, 1-[3-[[[[(4,6-dimethoxy-2-pyrimidinyl)amino]carbonyl]amino]sulfonyl]-2-pyridinyl]-2-fluoropropyl 2-methoxyacetate]
Visual Weed Control (%) - 21 DAA LEFCH Obs (Table 36, 0.1 gai/ha alone): 0% | Visual Weed Control (%) - 21 DAA LEFCH Obs (Table 36, 0.2 gai/ha alone): 0%
